In patent EP0637237B1, “CALCIUM RECEPTOR-ACTIVE MOLECULES” (BRIGHAM AND WOMEN'S HOSPITAL, INC., priority 1993, dated 1994):
Read-outs that look alike come from different tables or passages of the source.

Experiments:
[1] = Net positive charge of the molecule; type: physicochemical; conditions: Table 1; effective charge at physiological pH
[2] = test system: osteoclast Ca^2+ receptor; assay: [Ca2+]i (indo-1) in single rat osteoclasts; type: cell-based; conditions: for increase in [Ca2+]i in osteoclasts: screening, small responses were detected
[3] = biological target: T1, parathyroid cell Ca^2+ receptor (Bos taurus, UniProt P35384); type: cell-based, bovine; conditions: for effect on [Ca2+]i: tested at concentrations of 100 to 300 µM
T1 sequence (P35384 20-1085): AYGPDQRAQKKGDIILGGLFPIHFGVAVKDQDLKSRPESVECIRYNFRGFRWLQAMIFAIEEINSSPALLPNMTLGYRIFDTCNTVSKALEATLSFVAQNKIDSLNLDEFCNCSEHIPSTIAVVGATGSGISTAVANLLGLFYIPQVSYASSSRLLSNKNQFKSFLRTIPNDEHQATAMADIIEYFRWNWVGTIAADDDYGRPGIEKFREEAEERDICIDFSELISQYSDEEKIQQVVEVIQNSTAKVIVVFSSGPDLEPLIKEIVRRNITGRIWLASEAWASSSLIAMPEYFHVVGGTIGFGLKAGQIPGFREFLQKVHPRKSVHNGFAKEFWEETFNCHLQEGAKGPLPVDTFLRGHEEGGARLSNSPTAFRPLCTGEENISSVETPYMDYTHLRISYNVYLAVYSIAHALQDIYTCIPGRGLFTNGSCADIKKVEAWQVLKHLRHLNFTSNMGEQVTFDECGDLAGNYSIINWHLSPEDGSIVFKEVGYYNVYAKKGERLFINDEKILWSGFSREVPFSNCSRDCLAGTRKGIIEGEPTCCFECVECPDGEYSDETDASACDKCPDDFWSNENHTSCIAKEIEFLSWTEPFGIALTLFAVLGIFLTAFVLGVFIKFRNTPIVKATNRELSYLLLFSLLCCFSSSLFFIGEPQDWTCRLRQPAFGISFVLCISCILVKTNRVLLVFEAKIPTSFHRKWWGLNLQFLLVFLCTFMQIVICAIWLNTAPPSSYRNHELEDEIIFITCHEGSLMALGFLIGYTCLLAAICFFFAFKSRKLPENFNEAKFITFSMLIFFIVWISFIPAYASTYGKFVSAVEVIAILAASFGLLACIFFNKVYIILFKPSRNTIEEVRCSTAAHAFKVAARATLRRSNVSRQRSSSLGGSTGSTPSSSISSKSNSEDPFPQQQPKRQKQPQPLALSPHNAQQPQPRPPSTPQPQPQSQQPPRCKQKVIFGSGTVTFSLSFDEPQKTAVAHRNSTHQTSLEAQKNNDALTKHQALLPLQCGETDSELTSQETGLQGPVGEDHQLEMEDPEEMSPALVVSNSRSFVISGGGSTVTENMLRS

[4] = Serum or whole blood ionized Ca2+ and PTH in rats in vivo; design: species or system Sprague-Dawley rats
Source text: Male Sprague-Dawley rates (200 g) were maintained on a low calcium diet for one week prior to receiving test substance or vehicle as control. Blood was collected from the tail vein three hours after the intra-peritoneal administration of NPS 467. […]

[5] = Table 6, rat osteoclasts, indo-1, inactive = no increase in cytosolic Ca2+ at 1-5 mM
[6] = Table 1, mobilization of intracellular Ca2+ in parathyroid cells, read-out: EC50
[7] = read-out: EC50 for the mobilization of intracellular Ca2+, […]

Q: For gentamicin, which “Net (+) Charge” value [1] is on record?
A: +5

Q: For `NCCCNCCCCNCCCNCCCN(O)CCCNC(=O)Cc1c[nH]c2ccccc12` [NPS 017], which “EC50(µM) OSTEOCLAST” value [2, 5] is on record?
A: inactive

Q: With `[H]/N=C(/N)N[C@H]1[C@H](O)[C@@H](O)[C@H](O[C@@H]2O[C@@H](C)[C@](O)(C=O)[C@H]2O[C@@H]2O[C@@H](CO)[C@H](O)[C@@H](O)[C@@H]2NC)[C@@H](N/C(N)=N\[H])[C@@H]1O` [streptomycin] as the compound, how does the “Net (+) Charge” value [1] read?
A: +3

Q: And the EC50 [3, 6]?
A: 600 µM

Q: What about the EC50 ([3]; […]) of the same compound?
A: 600 µM

Q: For `CCC[C@@H]1C[C@@H](C(=O)N[C@@H]([C@H]2O[C@H](SC)[C@H](O)[C@@H](O)[C@H]2O)[C@@H](C)O)N(C)C1` [lincomycin], which “effect on cytosolic Ca2+ transients” value ([3]; tested at a concentration of 500 µM) is on record?
A: without effect

Q: Which “Net (+) Charge” value [1] does the source give for `NCCCCNCCCN` [spermidine] here?
A: +3

Q: What about the “increase in [Ca2+]i, % of that evoked by a maximal concentration of extracellular Ca2+” value ([2]; concentration of 1 mM) of the same compound?
A: about 10%

Q: And the “increase in [Ca2+]i in osteoclasts” value [2]?
A: none of these caused any large increase in [Ca^2+]i

Q: What about the EC50 [3] of the same compound?
A: 2000 µM

Q: Which EC50 [3, 7] does the source give for `COc1cccc(C(C)NCCCc2ccccc2Cl)c1` (racemic) [NPS 568] here?
A: < 5 µM

Q: For `NCCCN1CCCN(CCCN)CCN(CCCN)CCCN(CCCN)CC1` [NPS 383], which “Net (+) Charge” value [1] is on record?
A: +8

Q: For `COc1ccc(CCN(C)CCCC(C#N)(c2ccc(OC)c(OC)c2)C(C)C)cc1OC` (centres unmarked) [verapamil], which “increase in [Ca2+]i in osteoclasts” value [2] is on record?
A: none of these caused any large increase in [Ca^2+]i

Q: And the “increase in [Ca2+]i” value ([2]; verapamil 100 µM)?
A: no detectable increase in [Ca^2+]i

Q: With `NCCCCCCCCCCCCN` [1,12-diaminododecane (DADD), 1,12-diaminododecane] as the compound, how does the “Net (+) Charge” value [1] read?
A: +2

Q: And the EC50 ([3]; read-out: EC50)?
A: 3000 µM

Q: Which “Net (+) Charge” value [1] does the source give for `NCCNCCNCCNCCN` [tetraethylenepentamine] here?
A: +5

Q: For `NCCCNCCCCNCCCNCCCNCCCNC(=O)Cc1c[nH]c2ccccc12` [NPS 019], which EC50 [2, 5] is on record?
A: > 300 µM

Q: With `COc1cccc(C(C)NCCCc2ccccc2)c1` (racemic) [NPS 467] as the compound, how does the “time course of the hypocalcemic effect” value ([4]; Fig. 40 (25 mg/kg)) read?
A: maximal within three hours and returned toward control levels after 24 hours

Q: And the “serum albumin or phosphate levels” value ([4]; any of the doses examined)?
A: no change in serum albumin or phosphate levels

Q: What about the “serum or whole blood Ca2+” value ([4]; low calcium diet, three hours after intra-peritoneal administration, Fig. 38) of the same compound?
A: dose-dependent reduction in serum or whole blood Ca^2+

Q: And the “serum ionized calcium after oral administration” value ([4]; oral, dose-response curve, Fig. 44)?
A: lowers serum ionized calcium in rats when administered orally

Q: What about the “circulating levels of PTH” value ([4]; preliminary studies, doses effective in lowering blood Ca2+, Fig. 39) of the same compound?
A: dose-dependent reduction in circulating levels of PTH

Q: And the EC50 [3, 7]?
A: < 5 µM

Q: With `NCCCN(CCCN)CCCN(CCCN)CCCCN(CCCN)CCCN(CCCN)CCCN` [NPS 381, N^1,N^1,N^5,N^10,N^14,N^14-hexakis-(3-aminopropyl) spermine] as the compound, how does the “Net (+) Charge” value [1] read?
A: +10

Q: For `NCCNCCNCCN` [triethylenetetramine], which “Net (+) Charge” value [1] is on record?
A: +4

Q: With `NC[C@H]1O[C@H](O[C@H]2[C@H](O)[C@@H](O[C@H]3O[C@H](CO)[C@@H](O)[C@H](N)[C@H]3O)[C@H](N)C[C@@H]2N)[C@H](N)[C@@H](O)[C@@H]1O` [bekanamycin] as the compound, how does the “Net (+) Charge” value [1] read?
A: +5

Q: And the EC50 [3, 6]?
A: 200 µM

Q: And the EC50 ([3]; […])?
A: 200 µM

Q: What does the source list for `NC(=O)C[C@H](NC(=O)Cc1c[nH]c2cccc(O)c12)C(=O)NCCCCCNCCCNCCCNC(=O)[C@@H](N)CCCN=C(N)N` [Argiotoxin 659]?
A: Net (+) Charge [1]: +4; effect on [Ca2+]i [3]: evoked transient increases in [Ca^2+]i

Q: Which “effect on [Ca2+]i” value [3] does the source give for `NC(=O)C[C@H](NC(=O)Cc1ccc(O)cc1O)C(=O)NCCCCCNCCCNCCCNC(=O)[C@@H](N)CCCN=C(N)N` [argiotoxin 636] here?
A: without effect
